Measured values taken from patent US12552775B2, “Compounds and uses thereof” (Foghorn Therapeutics Inc., priority 2020, dated 2026).

Columns and labels:
[1] = target: T1, HiBit-BRG1 fusion protein (Homo sapiens, UniProt P51532); experiment: HiBiT-BRG1 cell-based degradation assay (Nano-Glo HiBiT Lytic Detection, 24 h); conditions: stable HeLa cell line expressing HiBit-BRG1 and LgBit, top dose 30 μM, read-out: BRG1 HiBit Degradation Maximum (%)
T1 construct: expressed in transfected cells
Experimental: (§1) Procedure: A stable HeLa cell line expressing HiBiT-BRM was generated. On day 0, 5000 cells were seeded in 40 μL of media into each well of 384-well cell culture plates. On day 1, cells were treated with 120 nL DMSO or 120 nL of 3-fold serially DMSO-diluted compounds (10 points in duplicate with 30 μM as final top dose). Subsequently plates were incubated for 24 h in a standard tissue culture incubator and equilibrated at room temperature for 15 minutes. Nano-Glo HiBiT Lytic Detection System (Promega N3050) reagent was freshly prepared and 20 ul was added to each well. Upon addition of this LgBit-containing reagent, the HiBiT and LgBiT proteins associate to form the luminescent NanoBiT luciferase. The plates were shaken for 10 minutes at room temperature and the bioluminescence read using an EnVision plate reader (PerkinElmer).
For measurement of BRG1 degradation, a stable HeLa cell line expressing HiBit-BRG1 and LgBit was generated. The same protocol as above was then followed.
(§2) The degradation % was calculated using the following formula: % degradation=100%−100%×(Lumsample−LumLC)/(LumHC−LumLC). DMSO treated cells are employed as High Control (HC) and 2 μM of a known BRM/BRG1 degrader standard treated cells are employed as Low Control (LC).

HiBit-BRM fusion protein = target: T2, HiBit-BRM fusion protein (Homo sapiens, UniProt P51531); experiment: HiBiT-BRM cell-based degradation assay (Nano-Glo HiBiT Lytic Detection, 24 h); conditions: stable HeLa cell line expressing HiBiT-BRM, top dose 30 μM
T2 construct: expressed in transfected cells
Experimental: as §1, §2

T1 sequence (P51532 whole entry, the tested form may be a part): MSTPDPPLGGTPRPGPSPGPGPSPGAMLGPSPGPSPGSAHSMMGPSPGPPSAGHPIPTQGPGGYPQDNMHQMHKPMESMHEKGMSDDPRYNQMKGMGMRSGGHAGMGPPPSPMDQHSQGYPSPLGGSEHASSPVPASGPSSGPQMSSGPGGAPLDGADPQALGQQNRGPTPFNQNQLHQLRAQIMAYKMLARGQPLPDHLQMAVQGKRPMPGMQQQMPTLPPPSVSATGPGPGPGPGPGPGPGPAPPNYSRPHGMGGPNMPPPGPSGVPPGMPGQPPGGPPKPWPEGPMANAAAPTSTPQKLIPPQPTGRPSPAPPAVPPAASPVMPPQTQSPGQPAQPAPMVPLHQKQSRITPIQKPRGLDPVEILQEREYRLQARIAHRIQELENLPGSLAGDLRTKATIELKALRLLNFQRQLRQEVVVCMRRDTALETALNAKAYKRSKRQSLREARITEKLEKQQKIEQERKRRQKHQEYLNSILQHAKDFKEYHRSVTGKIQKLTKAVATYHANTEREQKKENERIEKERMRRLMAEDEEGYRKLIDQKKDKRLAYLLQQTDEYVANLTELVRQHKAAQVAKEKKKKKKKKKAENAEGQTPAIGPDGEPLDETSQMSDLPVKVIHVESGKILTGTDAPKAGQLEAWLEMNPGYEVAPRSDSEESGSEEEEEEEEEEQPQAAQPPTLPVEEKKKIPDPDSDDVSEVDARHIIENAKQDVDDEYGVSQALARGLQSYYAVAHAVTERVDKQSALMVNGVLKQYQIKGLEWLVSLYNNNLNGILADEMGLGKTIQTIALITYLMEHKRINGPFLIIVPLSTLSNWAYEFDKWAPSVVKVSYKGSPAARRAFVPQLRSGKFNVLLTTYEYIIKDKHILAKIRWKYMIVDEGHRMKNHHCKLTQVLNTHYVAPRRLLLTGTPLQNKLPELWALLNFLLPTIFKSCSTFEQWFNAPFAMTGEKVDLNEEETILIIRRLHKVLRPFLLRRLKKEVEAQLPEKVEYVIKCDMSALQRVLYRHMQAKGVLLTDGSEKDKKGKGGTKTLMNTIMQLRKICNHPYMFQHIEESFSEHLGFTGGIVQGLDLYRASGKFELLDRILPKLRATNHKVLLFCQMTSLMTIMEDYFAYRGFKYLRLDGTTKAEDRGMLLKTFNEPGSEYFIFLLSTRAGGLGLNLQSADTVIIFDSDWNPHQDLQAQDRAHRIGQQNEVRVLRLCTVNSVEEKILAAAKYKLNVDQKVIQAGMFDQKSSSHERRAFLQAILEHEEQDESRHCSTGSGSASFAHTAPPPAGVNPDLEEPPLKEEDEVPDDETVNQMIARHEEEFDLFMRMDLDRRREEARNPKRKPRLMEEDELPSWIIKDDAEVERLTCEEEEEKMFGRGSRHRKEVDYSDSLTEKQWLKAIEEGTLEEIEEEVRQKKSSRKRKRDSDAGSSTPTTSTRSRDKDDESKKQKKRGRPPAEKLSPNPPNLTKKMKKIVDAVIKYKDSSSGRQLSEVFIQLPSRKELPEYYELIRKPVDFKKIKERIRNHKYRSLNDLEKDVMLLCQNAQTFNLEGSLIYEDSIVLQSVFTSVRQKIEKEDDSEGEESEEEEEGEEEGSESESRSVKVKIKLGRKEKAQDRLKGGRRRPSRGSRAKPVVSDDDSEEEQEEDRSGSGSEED
T2 sequence (P51531 whole entry, the tested form may be a part): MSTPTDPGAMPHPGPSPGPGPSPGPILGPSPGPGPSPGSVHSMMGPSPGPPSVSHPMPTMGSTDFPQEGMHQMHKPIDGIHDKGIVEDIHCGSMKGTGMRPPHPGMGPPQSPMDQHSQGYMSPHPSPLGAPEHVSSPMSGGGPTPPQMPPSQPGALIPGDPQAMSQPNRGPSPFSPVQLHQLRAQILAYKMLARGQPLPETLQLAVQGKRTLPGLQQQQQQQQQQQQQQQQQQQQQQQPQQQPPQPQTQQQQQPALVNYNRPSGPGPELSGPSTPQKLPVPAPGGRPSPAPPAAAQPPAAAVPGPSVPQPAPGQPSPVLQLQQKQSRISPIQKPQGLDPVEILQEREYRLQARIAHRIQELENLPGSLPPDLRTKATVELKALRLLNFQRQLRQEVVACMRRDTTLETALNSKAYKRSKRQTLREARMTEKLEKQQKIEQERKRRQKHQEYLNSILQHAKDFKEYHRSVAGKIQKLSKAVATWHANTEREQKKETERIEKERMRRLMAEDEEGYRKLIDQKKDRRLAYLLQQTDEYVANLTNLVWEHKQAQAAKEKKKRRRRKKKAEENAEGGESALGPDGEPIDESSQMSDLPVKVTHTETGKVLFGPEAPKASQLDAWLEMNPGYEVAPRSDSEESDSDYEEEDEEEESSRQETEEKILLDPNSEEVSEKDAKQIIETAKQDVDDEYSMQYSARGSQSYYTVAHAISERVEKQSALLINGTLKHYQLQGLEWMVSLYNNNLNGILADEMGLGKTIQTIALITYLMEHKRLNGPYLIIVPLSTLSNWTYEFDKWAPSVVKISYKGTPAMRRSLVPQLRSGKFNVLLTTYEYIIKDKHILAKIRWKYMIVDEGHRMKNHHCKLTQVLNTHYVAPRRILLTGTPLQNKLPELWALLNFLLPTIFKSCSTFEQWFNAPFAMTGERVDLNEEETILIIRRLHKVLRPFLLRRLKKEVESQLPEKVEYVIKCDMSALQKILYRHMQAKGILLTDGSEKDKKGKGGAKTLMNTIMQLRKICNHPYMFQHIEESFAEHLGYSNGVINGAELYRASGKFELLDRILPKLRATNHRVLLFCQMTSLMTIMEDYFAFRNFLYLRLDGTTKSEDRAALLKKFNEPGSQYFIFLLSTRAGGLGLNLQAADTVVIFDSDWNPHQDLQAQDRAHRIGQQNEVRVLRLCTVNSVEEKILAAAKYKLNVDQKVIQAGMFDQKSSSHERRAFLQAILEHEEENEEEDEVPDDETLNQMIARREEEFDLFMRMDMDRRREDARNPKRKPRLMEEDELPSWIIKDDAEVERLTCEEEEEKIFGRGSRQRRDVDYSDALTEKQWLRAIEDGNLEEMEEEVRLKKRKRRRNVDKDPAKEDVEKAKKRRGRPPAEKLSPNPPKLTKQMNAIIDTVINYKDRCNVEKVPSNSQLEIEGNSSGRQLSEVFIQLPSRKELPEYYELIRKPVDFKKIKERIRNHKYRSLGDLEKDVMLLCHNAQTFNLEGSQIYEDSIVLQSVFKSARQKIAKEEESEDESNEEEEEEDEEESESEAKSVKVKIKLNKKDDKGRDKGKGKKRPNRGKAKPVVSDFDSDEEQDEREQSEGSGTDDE

Structure (SMILES)	Dmax [1] [%]	BRM HiBit Degradation Maximum (%) (HiBit-BRM fusion protein)
Nc1nnc(-c2ccccc2O)cc1OCCC12CC(NC(=O)CCCCCCCCNc3cccc4c3C(=O)N(C3CCC(=O)NC3=O)C4=O)(C1)C2 (centres unmarked) [Compound 23, N-[3-(2-[[3-amino-6-(2-hydroxyphenyl)pyridazin-4-yl]oxy]ethyl)bicyclo[1.1.1]pentan-1-yl]-9-[[2-(2,6-dioxopiperidin-3-yl)-1,3-dioxoisoindol-4-yl]amino]nonanamide]	< 50	C (“C” indicates maximum degradation < 50%)
Nc1nnc(-c2ccccc2O)cc1OCC12CC(C(=O)N3CCN(CCCOCC#Cc4ccc5c(c4)C(=O)N(C4CCC(=O)NC4=O)C5=O)CC3)(C1)C2 (centres unmarked) [Compound 52, 5-(3-(3-(4-(3-(((3-amino-6-(2-hydroxyphenyl)pyridazin-4-yl)oxy)methyl)bicyclo[1.1.1]pentane-1-carbonyl)piperazin-1-yl)propoxy)prop-1-yn-1-yl)-2-(2,6-dioxopiperidin-3-yl)isoindoline-1,3-dione]	< 50	C (“C” indicates maximum degradation < 50%)
Nc1nnc(-c2ccccc2O)cc1OCCC12CC(NC(=O)CCN3CC4(C3)CN(c3ccc5c(c3)C(=O)N(C3CCC(=O)NC3=O)C5=O)C4)(C1)C2 (centres unmarked) [Compound 34, N-(3-(2-((3-amino-6-(2-hydroxyphenyl)pyridazin-4-yl)oxy)ethyl)bicyclo[1.1.1]pentan-1-yl)-3-(6-(2-(2,6-dioxopiperidin-3-yl)-1,3-dioxoisoindolin-5-yl)-2,6-diazaspiro[3.3]heptan-2-yl)propanamide]	< 50	C (“C” indicates maximum degradation < 50%)
Nc1nnc(-c2ccccc2O)cc1OCCC12CC(NC(=O)CCOCCOCCNc3cccc4c3C(=O)N(C3CCC(=O)NC3=O)C4=O)(C1)C2 (centres unmarked) [Compound 27, N-[3-(2-[[3-amino-6-(2-hydroxyphenyl)pyridazin-4-yl]oxy]ethyl)bicyclo[1.1.1]pentan-1-yl]-3-[2-(2-[[2-(2,6-dioxopiperidin-3-yl)-1,3-dioxoisoindol-4-yl]amino]ethoxy)ethoxy]propanamide]	< 50	C (“C” indicates maximum degradation < 50%)
Nc1nnc(-c2ccccc2O)cc1OCC12CC(C(=O)NCCNc3ccc4c(c3)C(=O)N(C3CCC(=O)NC3=O)C4=O)(C1)C2 (centres unmarked) [Compound 56, 3-(((3-amino-6-(2-hydroxyphenyl)pyridazin-4-yl)oxy)methyl)-N-(2-((2-(2,6-dioxopiperidin-3-yl)-1,3-dioxoisoindolin-5-yl)amino)ethyl)bicyclo[1.1.1]pentane-1-carboxamide]	< 50	C (“C” indicates maximum degradation < 50%)
Cc1ncsc1-c1ccc(CNC(=O)[C@@H]2C[C@@H](O)CN2C(=O)[C@@H](NC(=O)CCCCC(=O)NCC23CC(COc4cc(-c5ccccc5O)nnc4N)(C2)C3)C(C)(C)C)cc1 [Compound 35, N1-((3-(((3-amino-6-(2-hydroxyphenyl)pyridazin-4-yl)oxy)methyl)bicyclo[1.1.1]pentan-1-yl)methyl)-N6-((S)-1-((2S,4R)-4-hydroxy-2-((4-(4-methylthiazol-5-yl)benzyl)carbamoyl)pyrrolidin-1-yl)-3,3-dimethyl-1-oxobutan-2-yl)adipamide]	< 50	C (“C” indicates maximum degradation < 50%)
Nc1nnc(-c2ccccc2O)cc1OCCC12CC(NC(=O)CCCCCCCOc3cccc4c3C(=O)N(C3CCC(=O)NC3=O)C4=O)(C1)C2 (centres unmarked) [Compound 21, N-[3-(2-[[3-amino-6-(2-hydroxyphenyl)pyridazin-4-yl]oxy]ethyl)bicyclo[1.1.1]pentan-1-yl]-8-[[2-(2,6-dioxopiperidin-3-yl)-1,3-dioxoisoindol-4-yl]oxy]octanamide]	< 50	C (“C” indicates maximum degradation < 50%)
Cc1ncsc1-c1ccc(CNC(=O)[C@@H]2C[C@@H](O)CN2C(=O)[C@@H](NC(=O)CCCC(=O)NCC23CC(COc4cc(-c5ccccc5O)nnc4N)(C2)C3)C(C)(C)C)cc1 [Compound 37, N1-((3-(((3-amino-6-(2-hydroxyphenyl)pyridazin-4-yl)oxy)methyl)bicyclo[1.1.1]pentan-1-yl)methyl)-N5-((S)-1-((2S,4R)-4-hydroxy-2-((4-(4-methylthiazol-5-yl)benzyl)carbamoyl)pyrrolidin-1-yl)-3,3-dimethyl-1-oxobutan-2-yl)glutaramide]	< 50	C (“C” indicates maximum degradation < 50%)
Nc1nnc(-c2ccccc2O)cc1OCC12CC(CNC(=O)CCOCCOCCOc3ccc4c(c3)C(=O)N(C3CCC(=O)NC3=O)C4=O)(C1)C2 (centres unmarked) [Compound 1, N-[[3-([[3-amino-6-(2-hydroxyphenyl)pyridazin-4-yl]oxy]methyl)bicyclo[1.1.1]pentan-1-yl]methyl]-3-[2-(2-[[2-(2,6-dioxopiperidin-3-yl)-1,3-dioxoisoindol-5-yl]oxy]ethoxy)ethoxy]propanamide]	< 50	C (“C” indicates maximum degradation < 50%)
CN(CCNC(=O)C12CC(COc3cc(-c4ccccc4O)nnc3N)(C1)C2)CCOCCOc1cccc2c1C(=O)N(C1CCC(=O)NC1=O)C2=O (centres unmarked) [Compound 79, 3-(((3-amino-6-(2-hydroxyphenyl)pyridazin-4-yl)oxy)methyl)-N-(2-((2-(2-((2-(2,6-dioxopiperidin-3-yl)-1,3-dioxoisoindolin-4-yl)oxy)ethoxy)ethyl)(methyl)amino)ethyl)bicyclo[1.1.1]pentane-1-carboxamide]	< 50	C (“C” indicates maximum degradation < 50%)
Nc1nnc(-c2ccccc2O)cc1OCC12CC(CNC(=O)CCCCCCCCCCNc3ccc4c(c3)C(=O)N(C3CCC(=O)NC3=O)C4=O)(C1)C2 (centres unmarked) [Compound 10, N-[[3-([[3-amino-6-(2-hydroxyphenyl)pyridazin-4-yl]oxy]methyl)bicyclo[1.1.1]pentan-1-yl]methyl]-11-[[2-(2,6-dioxopiperidin-3-yl)-1,3-dioxoisoindol-5-yl]amino]undecanamide]	< 50	C (“C” indicates maximum degradation < 50%)
Nc1nnc(-c2ccccc2O)cc1OCC12CC(C(=O)NCCCCCCCCNc3cccc4c3C(=O)N(C3CCC(=O)NC3=O)C4=O)(C1)C2 (centres unmarked) [Compound 57, 3-(((3-amino-6-(2-hydroxyphenyl)pyridazin-4-yl)oxy)methyl)-N-(8-((2-(2,6-dioxopiperidin-3-yl)-1,3-dioxoisoindolin-4-yl)amino)octyl)bicyclo[1.1.1]pentane-1-carboxamide]	< 50	C (“C” indicates maximum degradation < 50%)
Cc1ncsc1-c1ccc(CNC(=O)[C@@H]2C[C@@H](O)CN2C(=O)[C@@H](NC(=O)CCCCCNC(=O)C23CC(COc4cc(-c5ccccc5O)nnc4N)(C2)C3)C(C)(C)C)cc1 [Compound 70, (2S,4R)-1-((S)-2-(6-(3-(((3-amino-6-(2-hydroxyphenyl)pyridazin-4-yl)oxy)methyl)bicyclo[1.1.1]pentane-1-carboxamido)hexanamido)-3,3-dimethylbutanoyl)-4-hydroxy-N-(4-(4-methylthiazol-5-yl)benzyl)pyrrolidine-2-carboxamide]	< 50	B (“B” indicates maximum degradation ≥ 50%)
CN(CCNC(=O)COc1cccc2c1C(=O)N(C1CCC(=O)NC1=O)C2=O)CCNC(=O)C12CC(COc3cc(-c4ccccc4O)nnc3N)(C1)C2 (centres unmarked) [Compound 75, 3-(((3-amino-6-(2-hydroxyphenyl)pyridazin-4-yl)oxy)methyl)-N-(2-((2-(2-((2-(2,6-dioxopiperidin-3-yl)-1,3-dioxoisoindolin-4-yl)oxy)acetamido)ethyl)(methyl)amino)ethyl)bicyclo[1.1.1]pentane-1-carboxamide]	< 50	C (“C” indicates maximum degradation < 50%)
Nc1nnc(-c2ccccc2O)cc1OCC12CC(C(=O)N3CCN(CCCCCOc4ccc5c(c4)C(=O)N(C4CCC(=O)NC4=O)C5=O)CC3)(C1)C2 (centres unmarked) [Compound 99, 5-((5-(4-(3-(((3-amino-6-(2-hydroxyphenyl)pyridazin-4-yl)oxy)methyl)bicyclo[1.1.1]pentane-1-carbonyl)piperazin-1-yl)pentyl)oxy)-2-(2,6-dioxopiperidin-3-yl)isoindoline-1,3-dione; formic acid]	< 50	C (“C” indicates maximum degradation < 50%)
Nc1nnc(-c2ccccc2O)cc1OCC12CC(CNC(=O)CCCOc3cccc4c3C(=O)N(C3CCC(=O)NC3=O)C4=O)(C1)C2 (centres unmarked) [Compound 2, N-[[3-([[3-amino-6-(2-hydroxyphenyl)pyridazin-4-yl]oxy]methyl)bicyclo[1.1.1]pentan-1-yl]methyl]-4-[[2-(2,6-dioxopiperidin-3-yl)-1,3-dioxoisoindol-4-yl]oxy]butanamide]	< 50	C (“C” indicates maximum degradation < 50%)
